Entries after “also recorded” stand apart in the source; their conditions may differ. Read-outs that look alike come from different tables or passages of the source.
Experiments:
[1] = target: human OAT1 (organic anion transporter1) (Homo sapiens (Human), UniProt Q4U2R8); assay: hOAT1 mediated uptake in MDCK-II cells; conditions: for Cellular Accumulation (control): control vector cells of hOAT1 test; for Cellular Accumulation (transporter): hOAT1 expressing MDCK-II cells
[2] = Phase I single dose study, safety and tolerability; format: in vivo, human; conditions: healthy volunteers, single doses 25 mg to 400 mg
Protocol: (§1) The study was a randomized, blinded, dose escalation trial to evaluate safety, tolerability, and pharmacokinetics. Healthy volunteers in each cohort (6 active/2 placebo) received a single dose of 25, 50, 100, 200 or 400 mg. An additional cohort received a standard dose of Viread for comparison of TFV-PP levels. For tenofovir anabolite analysis, PBMCs were lysed with 70% ice cold methanol and centrifuged; supernatants were analyzed using LC/MS/MS. The clinical samples were split into two aliquots. One aliquot was used for analysis of CMX157; following addition of an internal standard, these samples were evaporated to dryness prior to reconstitution and analysis. The second aliquot was for analysis of TFV, TFV-monophosphate and TFV-diphosphate; following addition of internal standards, samples were vortexed and centrifuged prior to analysis.

[3] = Phase I single dose study, TFV-diphosphate in PBMCs of healthy volunteers; format: in vivo, human; conditions: single 400 mg dose of CMX157
Protocol: as §1

[4] = tested on: HIV-1 subtypes (A-G, O); assay: Activity against HIV-1 subtypes in PBMCs; format: cell-based; conditions: Human immunodeficiency virus 1, PBMC
[5] = Phase I single dose study, plasma pharmacokinetics; format: in vivo, human; conditions: for Cmax / AUC(0-inf): human; for Cmax / AUC(0-inf) / TFV AUCINF / TFV Cmax: plasma; for AUC(0-inf): read-out: CMX157 AUCINF
Protocol: as §1

[6] = target: human OAT3 (organic anion transporter3) (Homo sapiens (Human), UniProt Q8TCC7); assay: hOAT3 mediated uptake in MDCK-II cells; format: in vitro ADME; conditions: for Cellular Accumulation (control): control vector cells of hOAT3 test; for Cellular Accumulation (transporter): hOAT3 expressing MDCK-II cells
Protocol: Experimental: The uptake test system was comprised of a polarized monolayer of MCDK-II cells grown on permeable supports. The MDCK-II cells were treated to express the transporter of interest or treated with a control vector.
The uptake of 2 μM [^3H]-p-aminohippurate (PAH) and 0.75 μM [^3H]-estrone-3-sulfate (E-3-S) in the absence and presence of the reference inhibitor was determined by radiometric detection. The uptake of CMX157 and tenofovir was in the absence and presence of the reference inhibitor or 20% human serum was determined by LC/MS/MS. Experiments were performed under the same conditions for the cells expressing the transporter or those treated with the control vector.
Net Transporter Mediated Uptake=(Cellular accumulation in the presence of the transporter)−(Cellular accumulation in the absence of the transporter) Results: The net hOAT1 mediated uptake of tenofovir in the presence and absence of 100 μM probenecid or 20% human serum is shown in FIG. 8. The transport of tenofovir is inhibited by probenecid and relatively unchanged by the presence of 20% human serum. OAT3 also appeared to mediate the transport of tenofovir. The effect of probenecid, however, was minimal. The presence of 20% human serum in the OAT3 experiment reduced the OAT3 mediated transport of tenofovir.

[7] = tested on: human PBMCs; conditions: activated human PBMCs, cited from earlier work
[8] = tested on: XMRV; assay: XMRV antiviral cytoprotection assay (PG-4 cells, XTT); format: cell-based; conditions: 144 h, 6 day assay, read-out: EC50s for XMRV
Protocol: An XMRV antiviral cytoprotection assay was conducted using PG-4 cells (ATCC# CRL-2032; feline astrocytes) and XMRV was collected from the supernatant of 22Rv1 human prostate cancer cells (ATCC# CRL-2505). Inhibition of cytopathic effect was quantified using XTT following a 6 day assay. Ribavirin and AZT were evaluated in parallel as control compounds.

[9] = tested on: HIV-1IIIB; assay: Anti-HIV-1 cytoprotection assay (CEM-SS, XTT)
[10] = tested on: CEM-SS cells; assay: Toxicity XTT in CEM-SS cells
[11] = tested on: human PBMCs; assay: Intracellular TFV-diphosphate in human PBMCs in vitro; conditions: human PBMCs (IL-2/PHA) after incubation with 1 μM CMX157 for 48 hours
[12] = cited from earlier work
[13] = hOAT1, substrate alone (PAH 2 μM)
[14] = single oral dose CMX157 200 mg, mean
[15] = single oral dose CMX157 400 mg, mean
[16] = hOAT3, substrate alone (E3S 0.75 μM)
[17] = Human immunodeficiency virus 1, IIIB, CEM-SS, 144 h, read-out: CEMSS/IIIB EC50

CCCCCCCCCCCCCCCCOCCCOP(=O)(O)CO[C@H](C)Cn1cnc2c(N)ncnc21 [CMX157, 3-(hexadecyloxy)propyl hydrogen ((R)-1-(6-amino-9H-purin 9-yl)propan-2-yloxy)methylphosphonate]
Cellular Accumulation (control) ([1]; + 100 μM probenecid): 40.4 ± 5.17 pmol/min/cm^2 | Cellular Accumulation (control) ([1]; + 20% human serum): 6.46 ± 0.168 pmol/min/cm^2 | Cellular Accumulation (control) ([1]; substrate alone (PAH 2 μM)): 50.3 ± 1.30 pmol/min/cm^2 | Net Transporter Mediated Cellular Accumulation ([1]; hOAT1, + 100 μM probenecid): −14.5 ± 4.65 pmol/min/cm^2 | Net Transporter Mediated Cellular Accumulation ([1]; hOAT1, + 20% human serum): −0.954 ± 1.70 pmol/min/cm^2 | Net Transporter Mediated Cellular Accumulation [1, 13]: −13.0 ± 0.0465 pmol/min/cm^2 | Cellular Accumulation (transporter) ([1]; + 100 μM probenecid): 25.9 ± 4.65 pmol/min/cm^2 | Cellular Accumulation (transporter) ([1]; + 20% human serum): 5.51 ± 1.70 pmol/min/cm^2 | Cellular Accumulation (transporter) ([1]; substrate alone (PAH 2 μM)): 37.3 ± 0.0465 pmol/min/cm^2 | serious and remarkable adverse events [2]: No SAEs or remarkable AEs were reported | subjects reporting mild headache [2]: 3 | tolerability [2]: well tolerated | TFV-diphosphate in PBMCs [3]: measurable in all subjects; also recorded: measurable in PBMCs from all patients | TFV-diphosphate in PBMCs 6 days after dosing [3]: all but one had detectable levels | IC50 ([4]; previously tested, read-out: IC50s against HIV-1 subtypes (A-G, O)): 0.001 to 0.007 µM | EC50 ([4]; read-out: EC50 against all major subtypes of HIV-1 in PBMCs): 0.0002 to 0.00718 µM | change of CMX157 plasma Cmax and AUC with dose ([5]; 25 mg to 400 mg single oral dose): approximate linear increase; also recorded: increased linearly with dose | Cmax ([5]; oral, all single dose groups (25 to 400 mg), read-out: Cmax levels): > 10 nM | AUC(0-inf) [5, 14]: 210 ng·h/mL | Cmax ([5]; single oral dose CMX157 200 mg, mean, read-out: CMX157 Cmax): 74 ng/mL | AUC(0-inf) [5, 15]: 376 ng·h/mL | Cmax ([5]; single oral dose CMX157 400 mg, mean, read-out: CMX157 Cmax): 165 ng/mL | substrate for human OAT3 [6]: did not appear to be a substrate | Cellular Accumulation (control) ([6]; + 100 μM probenecid): 49.5 ± 2.65 pmol/min/cm^2 | Cellular Accumulation (control) ([6]; + 20% human serum): 4.90 ± 1.57 pmol/min/cm^2 | Cellular Accumulation (control) ([6]; substrate alone (E3S 0.75 μM)): 39.5 ± 11.6 pmol/min/cm^2 | Net Transporter Mediated Cellular Accumulation ([6]; hOAT3, + 100 μM probenecid): −23.4 ± 7.59 pmol/min/cm^2 | Net Transporter Mediated Cellular Accumulation ([6]; hOAT3, + 20% human serum): 1.26 ± 0.396 pmol/min/cm^2 | Net Transporter Mediated Cellular Accumulation [6, 16]: −8.72 pmol/min/cm^2 | Cellular Accumulation (transporter) ([6]; + 100 μM probenecid): 26.1 ± 7.59 pmol/min/cm^2 | Cellular Accumulation (transporter) ([6]; + 20% human serum): 6.16 ± 0.396 pmol/min/cm^2 | Cellular Accumulation (transporter) ([6]; substrate alone (E3S 0.75 μM)): 30.7 pmol/min/cm^2 | TFV-diphosphate produced ([7]; 10 nM CMX157 (Lanier 2010)): 70 fmoles per million cells | EC50 [8]: 0.003 to 0.5 µM

C[C@H](Cn1cnc2c(N)ncnc21)OCP(=O)(O)OCCCOCCCC(=O)O [CMX157-220]
EC50 [9, 17]: > 10 µM | CEMSS TC50 [10]: >10.0 µM

CC(Cn1cnc2c(N)ncnc21)OCP(=O)(O)OP(=O)(O)OP(=O)(O)O (stereo in doubt) [TFV-PP, tenofovir-diphosphate]
in vitro intracellular half-life of TFV-PP (t1/2) [11]: 79.2 h | median human TFV-PP ([12]; Kiser et al. JAIDS 2008:47): 0.076 pmol/10^6

C[C@]12CC[C@@H]3c4ccc(OS(=O)(=O)O)cc4CC[C@H]3[C@@H]1CCC2=O [E3S, estrone-3-sulfate]
Cellular Accumulation (control) ([6]; substrate alone (E3S 0.75 μM)): 39.5 ± 11.6 pmol/min/cm^2 | Net Transporter Mediated Cellular Accumulation [6, 16]: −8.72 pmol/min/cm^2 | Cellular Accumulation (transporter) ([6]; substrate alone (E3S 0.75 μM)): 30.7 pmol/min/cm^2

Cc1cn([C@H]2C[C@H](N=[N+]=[N-])[C@@H](CO)O2)c(=O)[nH]c1=O [AZT, 3′-azido-2′,3′-dideoxythymidine, reference compound]
EC50 ([9]; Human immunodeficiency virus 1, IIIB, CEM-SS): 0.003 µM | EC50 [9, 17]: 0.003 µM | Therapeutic Index ([9]; TC50/EC50, CEM-SS, HIV-1 IIIB): >33.3 | CEMSS TC50 [10]: >0.1 µM

C[C@H](Cn1cnc2c(N)ncnc21)OCP(=O)(O)O [Tenofovir, (R)-9-(2-phosphonylmethoxypropyl)adenine, reference compound]
substrate for human OAT1 ([1]; MDCK): appeared to be a substrate | Cellular Accumulation (control) ([1]; + 100 μM probenecid): 2.22 ± 0.995 pmol/min/cm^2 | Cellular Accumulation (control) ([1]; + 20% human serum): 1.77 ± 1.13 pmol/min/cm^2 | Cellular Accumulation (control) ([1]; substrate alone (PAH 2 μM)): 2.45 ± 0.197 pmol/min/cm^2 | Net Transporter Mediated Cellular Accumulation ([1]; hOAT1, + 100 μM probenecid): 4.49 ± 1.46 pmol/min/cm^2 | Net Transporter Mediated Cellular Accumulation ([1]; hOAT1, + 20% human serum): 20.0 ± 3.45 pmol/min/cm^2 | Net Transporter Mediated Cellular Accumulation [1, 13]: 19.5 ± 4.04 pmol/min/cm^2 | Cellular Accumulation (transporter) ([1]; + 100 μM probenecid): 6.71 ± 1.46 pmol/min/cm^2 | Cellular Accumulation (transporter) ([1]; + 20% human serum): 21.8 ± 3.45 pmol/min/cm^2 | Cellular Accumulation (transporter) ([1]; substrate alone (PAH 2 μM)): 21.9 ± 4.04 pmol/min/cm^2 | TFV AUCINF [5, 14]: 283 ng·h/mL | TFV Cmax [5, 14]: 16 ng/mL | TFV AUCINF [5, 15]: 371 ng·h/mL | TFV Cmax [5, 15]: 27 ng/mL | Cellular Accumulation (control) ([6]; + 100 μM probenecid): 1.94 ± 0.345 pmol/min/cm^2 | Cellular Accumulation (control) ([6]; + 20% human serum): 2.28 ± 1.24 pmol/min/cm^2 | Cellular Accumulation (control) ([6]; substrate alone (E3S 0.75 μM)): 2.65 ± 1.96 pmol/min/cm^2 | Net Transporter Mediated Cellular Accumulation ([6]; hOAT3, + 100 μM probenecid): 1.35 ± 0.364 pmol/min/cm^2 | Net Transporter Mediated Cellular Accumulation ([6]; hOAT3, + 20% human serum): −0.292 ± 0.0591 pmol/min/cm^2 | Net Transporter Mediated Cellular Accumulation [6, 16]: 1.03 ± 0.591 pmol/min/cm^2 | Cellular Accumulation (transporter) ([6]; + 100 μM probenecid): 3.29 ± 0.364 pmol/min/cm^2 | Cellular Accumulation (transporter) ([6]; + 20% human serum): 1.99 ± 0.0591 pmol/min/cm^2 | Cellular Accumulation (transporter) ([6]; substrate alone (E3S 0.75 μM)): 3.68 ± 0.591 pmol/min/cm^2 | TFV-diphosphate produced ([7]; 1 μM TFV): 50 fmoles per million cells | Cmax ([12]; VIREAD package insert 2007): ~1000 nM

C[C@H](Cn1cnc2c(N)ncnc21)OCP(=O)(O)OCCCO [CMX157-210]
EC50 [9, 17]: > 10 µM | CEMSS TC50 [10]: >10.0 µM

C[C@H](Cn1cnc2c(N)ncnc21)OCP(=O)(O)OCCCOCC(=O)O [CMX157-211]
EC50 [9, 17]: > 10 µM | CEMSS TC50 [10]: >10.0 µM

CCCCCCCCCCCCCCCCOCCCOP(=O)([O-])CO[C@H](C)Cn1cnc2c(N)ncnc21.[K+] [CMX157 K^+ salt]
EC50 ([9]; CEM-SS cells, HIV-1 IIIB): < 0.03 µM | EC50 ([9]; read-out: CEMSS/IIIB EC50, CEM-SS cells, HIV-1 IIIB, 6 days, XTT): < 0.03 µM | CEMSS TC50 [10]: 5.2 µM
